Data reported in US20070219174A1, “METHODS OF TREATING CANCER USING HYPOFRACTIONATED RADIATION AND TEXAPHYRINS” (Pharmacyclics, Inc., priority 2006, published 2007).

Columns and labels:
brain metastases [1] = assay: MRI of brain metastases after MGd (FIG. 1A, 1B); type: in vivo, human
Excerpt: In particular, sections 20, 21, and 22 on the right panel (MGd+standard contrast) show brain metastases not visible in sections 20, 21, and 22 on the left panel (standard Gd contrast).

[2] = tested on: brain metastases from solid tumors; conditions: patients with brain metastases from solid tumors receiving WBRT; cited from earlier work
tumors [3] = conditions: cited from earlier work
tumors [4] = conditions: clinical results, magnetic resonance imaging; cited from earlier work
brain metastases [5] = conditions: clinical results, MRI long after administration; cited from earlier work

Structure (SMILES) | MRI enhancement of brain metastases versus standard Gd contrast (brain metastases [1]; FIG. 1A, MGd+standard contrast vs standard Gd contrast) | localization in brain metastases on MRI (brain metastases [1]; FIG. 1B, brain metastases from NSCLC, post MGd without contrast) | neurological progression incl. neurologic and neurocognitive function [2] | accumulation in tumors (tumors [3]; clinical results) | well tolerated dose (tumors [3]; clinical results) | radiologic response rate (tumors [3]; combined with WBRT of 30 Gy in 10 fractions) | biolocalization in tumors (tumors [4]) | tumor selectivity, depiction of brain metastases at MRI (brain metastases [5])
CC(=O)[O-].CC(=O)[O-].CCc1c(CC)c2cc3nc(cnc4cc(OCCOCCOCCOC)c(OCCOCCOCCOC)cc4ncc4nc(cc1[n-]2)C(CCCO)=C4C)C(C)=C3CCCO.O.[Gd+3] [MGd, motexafin gadolinium] | enhances brain metastases not visible with standard Gd contrast | localization in brain metastases from NSCLC | provides benefit to patient's neurological progression | selectively accumulated in tumors | up to 6.3 mg/kg | high radiologic response rate | – | –
CC(=O)[O-].CC(=O)[O-].CCc1c(CC)c2cc3nc(cnc4cc(OCCOCCOCCOC)c(OCCOCCOCCOC)cc4ncc4nc(cc1[n-]2)C(CCCO)=C4C)C(C)=C3CCCO.O.[Gd+3] [Gd-Tex, Gadolinium Texaphyrin] | – | – | – | – | – | – | selective biolocolization in tumors | tumor selective
